Experiments:
Experiment in all cases: in vitro antibacterial evaluation, MIC by broth dilution
Type in all cases: cell-based
Enterococcus sp. = details: broth dilution, 18 hours at 35° C.
Description: (§1) Methods for in vitro Antibacterial Evaluation (Table 1)
(§2) The minimum inhibitory concentration (MIC), the lowest concentration of the antibiotic which inhibits growth of the test organism, is determined by the broth dilution method using Muller-Hinton II […] (Baltimore Biological Laboratories) following the recommendations of the National Committee for Clinical Laboratory Standards [Methods for dilution antimicrobial susceptibility tests for bacteria that grow aerobically, approved standard M7-A2, National Committee for Clinical Laboratory Standards, Villanova, Pa.].
(§3) An inoculum level of 5×10^5 CFU/mL, and a range of antibiotic concentrations (64-0.06 μg/mL) is used. […] The test organisms include a spectrum of Gram-positive bacteria comprised of Staphylococcus sp., Streptococcus sp. and Enterococcus sp. These organisms include recent clinical isolates that are resistant to methicillin, penicillin and/or vancomycin.

Staphylococcus sp. = details: broth dilution, 18 hours at 35° C.; for MIC Staphylococcus aureus (ATCC 29213): strain ATCC 29213; for MIC Staphylococcus aureus (GC 1131): strain GC 1131; for MIC Staphylococcus aureus (GC 3051): strain GC 3051; for MIC Staphylococcus aureus (GC 3053): strain GC 3053; for MIC Staphylococcus aureus (GC 4541): strain GC 4541; for MIC Staphylococcus aureus (GC 4542): strain GC 4542; for MIC Staphylococcus aureus-SMITH (GC 4543): strain GC 4543; for MIC Staphylococcus aureus (GC 4544): strain GC 4544; for MIC Staphylococcus aureus (GC 4545): strain GC 4545; for MIC Staphylococcus haemolyticus (GC 4546): strain GC 4546; for MIC Coagulase Negative Staphylococcus (GC 4547): strain GC 4547; for MIC Coagulase Negative Staphylococcus (GC 4548): strain GC 4548; for MIC Coagulase Negative Staphylococcus (GC 4549): strain GC 4549; for MIC Coagulase Negative Staphylococcus (GC 4551): strain GC 4551
Description: as §1, §2, §3

Streptococcus sp. = details: broth dilution, 18 hours at 35° C.
Description: as §1, §2, §3

Escherichia coli = details: 18 hours at 35° C.
Outline: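 Broth dilution MIC per NCCLS M7-A2 in Mueller-Hinton II medium, inoculum 5×10^5 CFU/mL, antibiotic range 64-0.06 μg/mL. MIC taken as lowest concentration inhibiting growth.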

CC(c1ccccc1)C1NC(=O)CNC(=O)C(CO)NC(=O)C(C(O)C2CNC(=N)N2C2OC(CO)C(O)C(O)C2O)NC(=O)C(C(O)C2CNC(=N)N2)NC(=O)C(Cc2ccc(O)c(NC=O)c2)NC1=O (stereo not drawn) [Example 18, Cyclo[glycyl-β-methylphenylalanyl-3-formamidotyrosyl-3-(2-iminoimidazolidin-4-yl)seryl-3-(3-hexopyranosyl-2-iminoimidazolidin-4-yl)serylseryl]]
32 µg/mL: MIC Escherichia coli (GC 4559) (Escherichia coli; strain GC 4559, broth dilution)
16 µg/mL: MIC Escherichia coli (GC 4560) (Escherichia coli; strain GC 4560, broth dilution)
128 µg/mL: MIC Enterococcus faecalis (GC 4553) (Enterococcus sp.; strain GC 4553) | MIC Enterococcus avium (GC 4558) (Enterococcus sp.; strain GC 4558) | MIC Staphylococcus haemolyticus (GC 4546) (Staphylococcus sp.) | MIC Coagulase Negative Staphylococcus (GC 4547) (Staphylococcus sp.) | MIC Coagulase Negative Staphylococcus (GC 4548) (Staphylococcus sp.) | MIC Coagulase Negative Staphylococcus (GC 6257) (Staphylococcus sp.; strain GC 6257) | MIC Streptococcus pneumoniae (ATCC 6301) (Streptococcus sp.; strain ATCC 6301) | MIC Streptococcus pyogenes (GC 4563) (Streptococcus sp.; strain GC 4563) | MIC Streptococcus agalactiae (GC 4564) (Streptococcus sp.; strain GC 4564) | MIC Streptococcus pneumoniae (GC 4565) (Streptococcus sp.; strain GC 4565)
64 µg/mL: MIC Enterococcus faecium (GC 4557) (Enterococcus sp.; strain GC 4557) | MIC Coagulase Negative Staphylococcus (GC 4549) (Staphylococcus sp.) | MIC Streptococcus pneumoniae (GC 1894) (Streptococcus sp.; strain GC 1894) | MIC Escherichia coli (ATCC 25922) (Escherichia coli; strain ATCC 25922, broth dilution)
>128 µg/mL: MIC Enterococcus faecalis (ATCC 29212) (Enterococcus sp.; strain ATCC 29212) | MIC Enterococcus faecalis (GC 2242) (Enterococcus sp.; strain GC 2242) | MIC Enterococcus faecium (GC 2243) (Enterococcus sp.; strain GC 2243) | MIC Enterococcus faecalis (GC 2691) (Enterococcus sp.; strain GC 2691) | MIC Enterococcus faecalis (GC 3059) (Enterococcus sp.; strain GC 3059) | MIC Enterococcus faecalis (GC 4552) (Enterococcus sp.; strain GC 4552) | MIC Enterococcus faecalis (GC 4554) (Enterococcus sp.; strain GC 4554) | MIC Enterococcus faecium (GC 4556) (Enterococcus sp.; strain GC 4556) | MIC Enterococcus faecalis (GC 6189) (Enterococcus sp.; strain GC 6189) | MIC Staphylococcus aureus (ATCC 29213) (Staphylococcus sp.) | MIC Staphylococcus aureus (GC 1131) (Staphylococcus sp.) | MIC Staphylococcus aureus (GC 3051) (Staphylococcus sp.) | MIC Staphylococcus aureus (GC 3053) (Staphylococcus sp.) | MIC Staphylococcus aureus (GC 4541) (Staphylococcus sp.) | MIC Staphylococcus aureus (GC 4542) (Staphylococcus sp.) | MIC Staphylococcus aureus-SMITH (GC 4543) (Staphylococcus sp.) | MIC Staphylococcus aureus (GC 4544) (Staphylococcus sp.) | MIC Staphylococcus aureus (GC 4545) (Staphylococcus sp.) | MIC Coagulase Negative Staphylococcus (GC 4551) (Staphylococcus sp.)

N=C1NCC(C(O)C2NC(=O)C(Cc3ccc(OC4OC(CO)C(OC5OC6COC(c7ccccc7)OC6C(O)C5O)C(O)C4O)cc3)NC(=O)C(CC3CCCCC3)NC(=O)CNC(=O)C(CO)NC(=O)C(C(O)C3CNC(=N)N3C3OC(CO)C(O)C(O)C3O)NC2=O)N1 (stereo not drawn) [Example 199]
64 µg/mL: MIC Escherichia coli (ATCC 25922) (Escherichia coli)
<0.12 µg/mL: MIC Streptococcus agalactiae (GC 4564) (Streptococcus sp.) | MIC Streptococcus pneumoniae (ATCC 6301) (Streptococcus sp.) | MIC Streptococcus pneumoniae (GC 1894) (Streptococcus sp.) | MIC Streptococcus pneumoniae (GC 4565) (Streptococcus sp.) | MIC Streptococcus pyogenes (GC 4563) (Streptococcus sp.) | MIC Streptococcus pneumoniae (ATCC 6301) (Streptococcus sp.; inoculum 5×10^5 CFU/mL, strain ATCC 6301) | MIC Streptococcus pneumoniae (GC 1894) (Streptococcus sp.; inoculum 5×10^5 CFU/mL, strain GC 1894) | MIC Streptococcus pyogenes (GC 4563) (Streptococcus sp.; inoculum 5×10^5 CFU/mL, strain GC 4563) | MIC Streptococcus agalactiae (GC 4564) (Streptococcus sp.; inoculum 5×10^5 CFU/mL, strain GC 4564) | MIC Streptococcus pneumoniae (GC 4565) (Streptococcus sp.; inoculum 5×10^5 CFU/mL, strain GC 4565)
32 µg/mL: MIC Escherichia coli (GC 4559) (Escherichia coli)
2 µg/mL: MIC Enterococcus avium (GC 4558) (Enterococcus sp.) | MIC Enterococcus faecalis (GC 2242) (Enterococcus sp.) | MIC Enterococcus faecalis (GC 6189) (Enterococcus sp.) | MIC Enterococcus faecium (GC 4557) (Enterococcus sp.) | MIC Enterococcus faecalis (GC 2242) (Enterococcus sp.; inoculum 5×10^5 CFU/mL, strain GC 2242) | MIC Enterococcus faecium (GC 4557) (Enterococcus sp.; inoculum 5×10^5 CFU/mL, strain GC 4557) | MIC Enterococcus avium (GC 4558) (Enterococcus sp.; inoculum 5×10^5 CFU/mL, strain GC 4558) | MIC Enterococcus faecalis (GC 6189) (Enterococcus sp.; inoculum 5×10^5 CFU/mL, strain GC 6189) | MIC Staphylococcus aureus (GC 1131) (Staphylococcus sp.; inoculum 5×10^5 CFU/mL) | MIC Staphylococcus aureus (ATCC 29213) (Staphylococcus sp.) | MIC Staphylococcus aureus (GC 1131) (Staphylococcus sp.) | MIC Staphylococcus aureus (GC 3053) (Staphylococcus sp.) | MIC Staphylococcus aureus (GC 4541) (Staphylococcus sp.) | MIC Staphylococcus aureus (GC 4544) (Staphylococcus sp.) | MIC Coagulase Negative Staphylococcus (GC 4547) (Staphylococcus sp.)
4 µg/mL: MIC Enterococcus faecalis (ATCC 29212) (Enterococcus sp.) | MIC Enterococcus faecalis (GC 2691) (Enterococcus sp.) | MIC Enterococcus faecalis (GC 3059) (Enterococcus sp.) | MIC Enterococcus faecalis (GC 4552) (Enterococcus sp.) | MIC Enterococcus faecalis (GC 4553) (Enterococcus sp.) | MIC Enterococcus faecalis (GC 4554) (Enterococcus sp.) | MIC Enterococcus faecium (GC 2243) (Enterococcus sp.) | MIC Enterococcus faecium (GC 4556) (Enterococcus sp.) | MIC Enterococcus faecalis (ATCC 29212) (Enterococcus sp.; inoculum 5×10^5 CFU/mL, strain ATCC 29212) | MIC Enterococcus faecium (GC 2243) (Enterococcus sp.; inoculum 5×10^5 CFU/mL, strain GC 2243) | MIC Enterococcus faecalis (GC 2691) (Enterococcus sp.; inoculum 5×10^5 CFU/mL, strain GC 2691) | MIC Enterococcus faecalis (GC 3059) (Enterococcus sp.; inoculum 5×10^5 CFU/mL, strain GC 3059) | MIC Enterococcus faecalis (GC 4552) (Enterococcus sp.; inoculum 5×10^5 CFU/mL, strain GC 4552) | MIC Enterococcus faecalis (GC 4553) (Enterococcus sp.; inoculum 5×10^5 CFU/mL, strain GC 4553) | MIC Enterococcus faecalis (GC 4554) (Enterococcus sp.; inoculum 5×10^5 CFU/mL, strain GC 4554) | MIC Enterococcus faecium (GC 4556) (Enterococcus sp.; inoculum 5×10^5 CFU/mL, strain GC 4556)
1 µg/mL: MIC Staphylococcus aureus (GC 3051) (Staphylococcus sp.) | MIC Staphylococcus aureus (GC 4542) (Staphylococcus sp.) | MIC Staphylococcus aureus-SMITH (GC 4543) (Staphylococcus sp.) | MIC Staphylococcus aureus (GC 4545) (Staphylococcus sp.) | MIC Staphylococcus haemolyticus (GC 4546) (Staphylococcus sp.) | MIC Coagulase Negative Staphylococcus (GC 4551) (Staphylococcus sp.) | MIC Escherichia coli (GC 4560) (Escherichia coli)
0.5 µg/mL: MIC Coagulase Negative Staphylococcus (GC 4548) (Staphylococcus sp.) | MIC Coagulase Negative Staphylococcus (GC 4549) (Staphylococcus sp.)
